Measurements published in PMC11446937, “Bacteria from the Amycolatopsis genus associated with a toxic bird secrete protective secondary metabolites” (Nature Communications, 2024).

Experiments:
[1] = tested on: bacterial and fungal indicator strains; test: Disc-diffusion antimicrobial activity, indicator strains overall; format: cell-based; conditions: disc-diffusion assays of isolated compounds against indicator strains incl. K. rhizophila and C. albicans
Procedure: For more experimental details, see Supplementary Methods and Supplementary Tables 16–18.
Droplet-collapsing test of lipopetides.
Pure compounds were dissolved in water (final concentration 10 mM). Then, 20 µl of the solutions were placed on a hydrophobic surface (parafilm ‘M’). Tensioactive properties were determined by the observation of collapsed […]
33,34 Tween-20 (10 mM) was used as tensioactive positive control. For better visualization, 0.0025% crystal violet was added to the droplet, having no effect on the […]
Supplementary Figure 88. Droplet-collapsing assay testing the tensioactive properties of lipopeptides (n=3). […]
epidermidis DSM103867, as well as the skin pathogenic yeast C. albicans SC5314. […] Antimicrobial activity was determined by measuring the inhibition zone surrounding the disc in mm. […]
Pure compounds (1 mg/mL in DMSO or 50% MeOH) were tested for their antimicrobial activity against a variety of bacterial and fungal indicator strains: B. subtilis 6633 (Bs), S. aureus SG511 (Sa1), E. coli SG458 (Ec), P. aeruginosa K799/61 (Pa), S. aureus 134/94 (MRSA) (Sa2), E. faecalis 1528 (VRSA) (Ef), Mycobacterium vaccae 10670 (Mv), Sporobomyces salmonicolor 549 (Ss), C. albicans C.A. (Ca), and Penicillium notatum JP36 (Pn). […] Antimicrobial activity was determined by measuring the inhibition zone surrounding the disc in mm (n=3). […]

P. aeruginosa K799/61 = conditions: Suppl. Table 17; disc diffusion; 1 mg/mL in DMSO, 50 µl (50 µg) per disc; Cip 5 µg/mL (H2O/HCl); DMSO solvent control itself 12P; n=3
[2] = tested on: Mycobacterium vaccae 10670; test: Disc-diffusion antimicrobial assay, clinically relevant indicator strains; conditions: Suppl. Table 17, 1 mg/mL in DMSO, 50 µl (50 µg) per disc, Cip 5 µg/mL (H2O/HCl), DMSO solvent control itself 11P, n=3
E. coli SG458 = test: as above; conditions: Suppl. Table 17, 1 mg/mL in DMSO, 50 µl (50 µg) per disc, Cip 5 µg/mL (H2O/HCl), DMSO solvent control itself 12P, n=3
S. aureus SG511 = test: as above; conditions: Suppl. Table 17, 1 mg/mL in DMSO, 50 µl (50 µg) per disc, Cip 5 µg/mL (H2O/HCl), DMSO solvent control itself 11P, n=3
C. albicans C.A. = test: as above; format: cell-based; conditions: Suppl. Table 17; disc diffusion; 1 mg/mL in DMSO, 50 µl (50 µg) per disc; Amph B 10 µg/mL (DMSO/H2O); DMSO solvent control 0; n=3
Procedure: (§1) Disc-diffusion antimicrobial activity assays against clinically relevant indicator strains.
(§2) Pure compounds (1 mg/mL in DMSO or 50% MeOH) were tested for their antimicrobial activity against a variety of bacterial and fungal indicator strains: B. subtilis 6633 (Bs), S. aureus SG511 (Sa1), E. coli SG458 (Ec), P. aeruginosa K799/61 (Pa), S. aureus 134/94 (MRSA) (Sa2), E. faecalis 1528 (VRSA) (Ef), Mycobacterium vaccae 10670 (Mv), Sporobomyces salmonicolor 549 (Ss), C. albicans C.A. (Ca), and Penicillium notatum JP36 (Pn). On each disc, 50 µl compound solution (50 µg) were applied. Antimicrobial activity was determined by measuring the inhibition zone surrounding the disc in mm (n=3).
(§3) Bs: B. subtilis 663, Sa1: S. aureus SG511, Ec: E. coli SG458, Pa: P. aeruginosa K799/61, Sa2: S. aureus 134/94 (MRSA), Ef: E. faecalis 1528 (VRSA), Mv: M. vaccae 10670, Ss: S. salmonicolor 549, Ca: C. albicans C.A., Pn: P. notatum JP36. P: colonies in the inhibition zone, p: single colonies in the inhibition zone. A: no to low inhibition, n.t.: not tested.
(§4) B. subtilis 663, Sa1: S. aureus SG511, Ec: E. coli SG458, Ca: C. albicans C.A., P: colonies in the inhibition zone, […]

Penicillium notatum JP36 = test: as above; format: cell-based; conditions: Suppl. Table 17, 1 mg/mL in DMSO, 50 µl (50 µg) per disc, Amph B 10 µg/mL (DMSO/H2O), DMSO solvent control itself 12P, n=3
Procedure: as §1, §2, §3, §4

[3] = tested on: Sporobomyces salmonicolor 549; test: as above; format: cell-based; conditions: Suppl. Table 17, 1 mg/mL in DMSO, 50 µl (50 µg) per disc, Amph B 10 µg/mL (DMSO/H2O), DMSO solvent control itself 13P, n=3
Procedure: as §1, §2, §3, §4

S. aureus 134/94 (MRSA) = test: as above; conditions: Suppl. Table 17, 1 mg/mL in DMSO, 50 µl (50 µg) per disc, Cip 5 µg/mL (H2O/HCl), DMSO solvent control 0, n=3
E. faecalis 1528 = test: as above; conditions: Suppl. Table 17, 1 mg/mL in DMSO, 50 µl (50 µg) per disc, Cip 5 µg/mL (H2O/HCl), DMSO solvent control itself 12p, n=3
B. subtilis 6633 = test: as above; conditions: Suppl. Table 17, 1 mg/mL in DMSO, 50 µl (50 µg) per disc, Cip 5 µg/mL (H2O/HCl), DMSO solvent control itself 12P, n=3
ZIKV NS2B-NS3 = conditions: 200 µM
[4] = tested on: B. thuringiensis DSM104061; test: Disc-diffusion antimicrobial assay, ecologically relevant indicator strains; format: cell-based, Bacillus thuringiensis; conditions: Suppl. Table 16, pure compounds 10 mg/mL in DMSO, 5 µl per disc, control Cip 5 µg/mL (HCl), DMSO control 0, n=1
cruzain = test: Fluorimetric protease inhibition assay; format: biochemical, Trypanosoma cruzi; conditions: 200 µM, 10 min, mean ± standard deviation, n=3
urokinase (uPA) = test: Fluorimetric protease inhibition assay; format: biochemical; conditions: 200 µM, 10 min, mean ± standard deviation, n=3
DENV2 NS2B-NS3 = test: Fluorimetric protease inhibition assay; format: biochemical; conditions: 200 µM, 10 min, mean ± standard deviation, n=3
C. albicans SC5314 = test: Disc-diffusion antimicrobial assay, ecologically relevant indicator strains; format: cell-based, Candida albicans; conditions: Suppl. Table 16, pure compounds 10 mg/mL in DMSO, 5 µl per disc, control Amph B 10 µg/mL (DMSO/H2O), DMSO control 0, n=1
sortase A (SrtA) = conditions: 200 µM
SARS-CoV2 Mpro = conditions: 200 µM; fluorimetric, 10 min; mean ± standard deviation, n=3
P. monteilii DSM1388 = test: Disc-diffusion antimicrobial assay, ecologically relevant indicator strains; format: cell-based, Pseudomonas monteilii; conditions: Suppl. Table 16, pure compounds 10 mg/mL in DMSO, 5 µl per disc, control Cip 5 µg/mL (HCl), DMSO control 0, n=1
SARS-CoV PLpro = conditions: 200 µM; fluorimetric, 10 min; mean ± standard deviation, n=3
cathepsin B = test: Fluorimetric protease inhibition assay; format: biochemical; conditions: 200 µM, 10 min, mean ± standard deviation, n=3
B. licheniformis DSM13 = test: Disc-diffusion antimicrobial assay, ecologically relevant indicator strains; format: cell-based, Bacillus licheniformis; conditions: Suppl. Table 16, pure compounds 10 mg/mL in DMSO, 5 µl per disc, control Cip 5 µg/mL (HCl), DMSO control 0, n=1
K. rhizophila DSM11926 = test: as above; format: cell-based, Kocuria rhizophila; conditions: Suppl. Table 16, pure compounds 10 mg/mL in DMSO, 5 µl per disc, control Cip 5 µg/mL (HCl), DMSO control 0, n=1
cathepsin L = test: Fluorimetric protease inhibition assay; format: biochemical; conditions: 200 µM, 10 min, mean ± standard deviation, n=3
rhodesain = conditions: 200 µM

| Compound | antimicrobial activity (in words) [1] | inhibition zone, Pa (P. aeruginosa K799/61) | inhibition zone, Mv [2] | inhibition zone, Ec (E. coli SG458) | inhibition zone, Sa1 (S. aureus SG511) | inhibition zone, Ca (C. albicans C.A.) | inhibition zone, Pn (Penicillium notatum JP36) | inhibition zone, Ss [3] | inhibition zone, Sa2 (S. aureus 134/94 (MRSA)) | inhibition zone, Ef (E. faecalis 1528) | inhibition zone, Bs (B. subtilis 6633) | Protease inhibition rate, ZIKV (ZIKV NS2B-NS3) | inhibition zone, Bt [4] | Protease inhibition rate, Cruzain (cruzain) | Protease inhibition rate, uPA (urokinase (uPA)) | Protease inhibition rate, DENV2 (DENV2 NS2B-NS3) | inhibition zone, Ca2 (C. albicans SC5314) | Protease inhibition rate, SrtA (sortase A (SrtA)) | Protease inhibition rate, Mpro (SARS-CoV2) (SARS-CoV2 Mpro) | inhibition zone, Pm (P. monteilii DSM1388) | other results |
| --- | --- | --- | --- | --- | --- | --- | --- | --- | --- | --- | --- | --- | --- | --- | --- | --- | --- | --- | --- | --- | --- |
| C[C@H]1CN2C(=O)/C=C/C=C/C=C/[C@@](C)(O)C(O[C@@H]3OC[C@@H](O)[C@H](O)[C@H]3N)\C=C/C=C/C=C/C=C\[C@@H]2[C@@H]1O (stereo partly shown) [Compound 8, ciromicin A, reference compound] | antifungal and antibacterial effects |  |  |  |  |  |  |  |  |  |  |  |  |  |  |  |  |  |  |  |  |
| Demiguisin [Compound 7] | no antimicrobial effects | 0 mm | 0 mm | 0 mm | 0 mm | 0 mm | 0 mm | 0 mm | 0 mm | 0 mm | 0 mm |  |  |  |  |  |  |  |  |  |  |
| Pachycephalamide E [Compound 5] |  | 17P |  | 15P | 0 mm | 0 mm | 14p | 19p | 0 mm | 13p | 0 mm | 22.71 ± 1.47 | 0 mm | 43.80 ± 2.31% | 0 ± 0% | 19.02 ± 6.12% | 0 mm | 17.94 ± 1.28 | 14.75 ± 7.06% | 0 mm | Protease inhibition rate, PLpro (SARS-CoV) (SARS-CoV PLpro): 0 ± 0%; Protease inhibition rate, Cathepsin B (cathepsin B): 47.52 ± 9.52%; inhibition zone, Bl (B. licheniformis DSM13): 0 mm; inhibition zone, Kr (K. rhizophila DSM11926): 7 mm; Protease inhibition rate, Cathepsin L (cathepsin L): 47.31 ± 2.53%; Protease inhibition rate, Rhodesain (rhodesain): 48.22 ± 1.63 |
| Pachycephalamide F [Compound 6] |  | 18P | 13p | 13P | 0 mm | 0 mm | 13p | 23p | 0 mm | 13p | 0 mm | 22.62 ± 1.19 | 0 mm | 60.52 ± 3.73% | 0 ± 0% | 18.47 ± 1.66% | 0 mm | 20.39 ± 3.94 | 6.92 ± 5.97% | 0 mm | Protease inhibition rate, PLpro (SARS-CoV) (SARS-CoV PLpro): 0 ± 0%; Protease inhibition rate, Cathepsin B (cathepsin B): 57.57 ± 11.52%; inhibition zone, Bl (B. licheniformis DSM13): 0 mm; inhibition zone, Kr (K. rhizophila DSM11926): 10 mm; Protease inhibition rate, Cathepsin L (cathepsin L): 58.30 ± 6.91%; Protease inhibition rate, Rhodesain (rhodesain): 53.72 ± 0.31 |
